“And” between values parts separate entries of the source, which are not always exact repeats. Equal values may be shown once. Where no end group is shown, it is not given here.
Tests used:
bacteria = details: cited from earlier work
Description: One of the most intensively researched proline-rich AMPs is bactenecin-7 (Bac7). It is a 60 amino acid long linear peptide that was first isolated from bovine neutrophils. […] Measuring the antimicrobial activity of heavily mutated variants was valuable to determine the sequence-activity relationship of Bac7_1-23 because (i) the activity of specific amino acid res ... || Bac7PS excelled over Bac7_1-23 in terms of antimicrobial activity against clinical isolates including MDR bacteria and a decreased dependency on the SbmA transporter (Fig. 4a; Table 2). […] We mainly attribute the activity gain to the increased ability to penetrate membranes, which was accompanied by a slight increase in membrane damage at higher concentrations compared to Bac7_1-23 (Fig. 4b; Additional file 1 ...

bacterial membranes = details: cited from earlier work
Description: We next investigated whether an increased propensity to damage membranes could be the reason for the improved antimicrobial activity of Bac7PS. Membrane damage is the most frequent way AMPs kill bacteria and is often considered the reason for high toxicity against eukaryotic cells. […] Consequently, we investigated if Bac7PS had acquired a tendency to damage membranes, which could imply a greater risk for systemic human applications. Cell damage was assessed by measuring leakage of green fluorescent protein (GFP), ex ...

mouse red blood cells = assay: Hemolysis assay; assay type: cell-based; details: 1 h, 37°C, DPBS, relative to Triton-X100 lysis control, triplicates
Description: Mouse blood was obtained from the ETH Phenomics Center. The erythrocytes were isolated by centrifugation at 500 × g for 10 min and removal of the blood plasma. The cells were washed three times by gently resuspending them in an equal volume of DPBS followed by centrifugation. After the last resuspension, the cells were diluted 1:50 in DPBS. For the hemolysis assay, a log2-serial dilution of each peptide was prepared as described for the MIC but using DPBS and 96-well plates (U-bottom, PP, 650201, Greiner) with a final volume of 100 μl. As lysis control, 2.5% Triton-X100 in DPBS was used in well 10, well 11 served as non-treated control (no peptide added), and well 12 as blank. To each well of the dilution plate, 100 μl of the red blood cells suspension was added. The plate was incubated for 1 h at 37°C. After incubation, the plate was centrifuged at 500 × g for 10 min and 100 μl of the supernatant was transferred to a clean 96-well plate (F-bottom, PS, 655101, Greiner). The absorbance was measured at 540 nm using an Infinite M1000 PRO plate reader (Tecan) and corrected by the measurements from the untreated wells. The lysis of each peptide concentration was expressed relative to the lysis control (set as 100% lysis). The hemolysis assay was performed in biological triplicates.

[1] = test system: E. coli clinical isolates; assay type: cell-based; details: clinical isolates of E. coli (n=45) including MDR (ESBL, CRE); MHB II; 18 h, 37°C
Description: (§1) Bacterial cells were grown in cation-adjusted Mueller Hinton Broth (MHB II) overnight to stationary phase. The cultures were then supplemented with 200 g l^−1 glycerol, aliquoted, and frozen at −80°C. […] The purified peptides were thawed and the concentration was determined by RP-HPLC as described before. The peptides were diluted with sterile water to 4-fold the desired assays starting concentration and to a final volume of 50 μl. […] The first well of each MIC dilution series was filled with 20 μl of 2-fold concentrated MHB II, wells 2–11 with 20 μl of MHB II, and well 12 with 40 μl MHB II (sterility control). Next, 20 μl of the peptide dilution was added to the first well, mixed, and a log2-serial dilution was performed from wells 1 to 10 (20 μl transfer volume). Well 11 served as growth control (i.e., no peptide added). In the last step, 20 μl of the bacterial cell suspension was added to wells 1–11 either using the pipetting robot (E. coli TOP10, BW25113, BW25113 ΔsbmA, and ATCC 25922) or by manual pipetting (E. coli clinical isolates). The plates were sealed airtight and incubated for 18 h without shaking at 37°C before reading the OD using an Infinite 200 PRO plate reader (Tecan, Männedorf, CH). The MIC value corresponded to the concentration at which no growth of the bacterial strain was observed (< 5% of the OD value of the growth control) and was evaluated using a custom-written script in the programming language R. MIC values of E. coli TOP10, BW25113, BW25113 ΔsbmA, and ATCC 25922 were determined at least in biological triplicates. All MIC experiments were determined in technical replicate.

E. coli BW25113 = assay type: cell-based; details: E. coli BW25113 parental strain; MHB II; 18 h, 37°C; averaged (n>3)
Description: as §1

E. coli TOP10 [2] = assay type: cell-based; details: MHB II, 18 h, 37°C, averaged (n>3), <5% of OD of growth control
Description: as §1

E. coli BW25113 ΔsbmA = assay type: cell-based
Description: as §1

E. coli ATCC 25922 = assay type: cell-based; details: E. coli ATCC 25922 quality control strain; MHB II; 18 h, 37°C; averaged (n>3)
Description: as §1

HEK 293 cells = assay type: cell-based, human; details: MTT, 24 h, 37°C, triplicates, read-out: Toxicity IC50
Description: (§2) HeLa epithelioid cervix carcinoma cells (originally purchased: 93021013, Sigma Aldrich) and HEK 293 human embryonic kidney (originally purchased: 85120602, Sigma Aldrich) were routinely cultivated in Dulbecco’s MEM high glucose (DMEM, with L-glutamine, without phenol red, 1-26P32, Bioconcept, Allschwil, CH), supplemented with 10% fetal bovine serum (heat inactivated, sterile filtered, F9665, Sigma Aldrich) and 100 IU ml^−1/100 μg ml^−1 Penicillin/streptomycin (4-01F00, Bioconcept) at 37°C with 5% CO2. Cells were split at a confluency of ≤ 90% (every 3 to 4 days) and maintained for max. 10 passages before a fresh aliquot of cells were seeded. […] The cell concentration was determined using a Countess 2 device (Thermo Fisher Scientific) and approx. 5000 (HeLa) or 25,000 (HEK 293) cells were seeded into wells of a 96-well plate (F-bottom, PS, 655180, Greiner) together with 100 μl DMEM. […] For each dilution series, the IC50 value was determined by computing a weighted n-parameters logistic regression using the “nplr” package in R (https://CRAN.R-project.org/package=nplr). […]

E. coli TOP10 [3] = assay: Membrane damage assay in MHB II (GFP loss, PI uptake); assay type: cell-based; details: at the MIC up to 8-fold higher concentrations, n = 3
HeLa cells = assay: In vitro toxicity assay (MTT), HeLa; assay type: cell-based, human
Description: as §2

Substance	activity against species of Gram-negative Enterobacteriaceae (bacteria)	damage of bacterial membranes at its MIC (bacterial membranes)	Hemolysis of mouse red blood cells (mouse red blood cells; 1xMIC (MIC measured for E. coli ATCC 25922))	Hemolysis of mouse red blood cells (mouse red blood cells; 4xMIC (MIC measured for E. coli ATCC 25922))	MIC50 [1] [µM]	MIC (E. coli BW25113) [µM]	MIC (E. coli TOP10 [2]) [µM]	antimicrobial activity against the SbmA transporter knockout strain (E. coli BW25113 ΔsbmA)	MIC (E. coli BW25113 ΔsbmA; MHB II, 18 h, 37°C, averaged (n>3)) [µM]	MIC (E. coli ATCC 25922) [µM]	IC50 (HEK 293 cells) [µM]	PI-positive cells (E. coli TOP10 [3])	cells that retained GFP levels (E. coli TOP10 [3])	IC50 (HeLa cells; HeLa, MTT, 24 h, 37°C, triplicates) [µM]	therapeutic index (TI), Toxicity/MIC (HeLa cells; IC50 HeLa divided by MIC50 from clinical isolates)
Bac7: 60 amino acid long linear peptide first isolated from bovine neutrophils	high activity	not damage bacterial membranes													
RRIRPRPPRLPRPRPRPLPFPRP [Bac7_1-23]			< 4% and 2.1%	< 7% and 6.4%	7.5	7.4	4.6	largely inactive	52.1	2.8	1970	~ 1%	~ 99%	1460	195

Reference: publication PMC9112550, “Optimization of the antimicrobial peptide Bac7 by deep mutational scanning” (BMC Biology, 2022)
